Calls of active or inactive are those of the source. No cut-off for these calls is given here.
Legend:
[1] = tested on: MM1.S; assay: Antitumor activity against human MM1.S cells xenografted in SCID mouse assessed as tumor growth inhibition at 5 mg/kg, iv administered once daily via tail vein for 8 consecutive days and measured twice a week relative to control; format: functional; settings: 192 h, time 8 day, read-out: TGI
[2] = Tmax in C57 mouse at 3 mg/kg, iv measured upto 24 hrs by LC-MS/MS analysis; format: ADME, organism-based; settings: in vivo
[3] = Clearance in C57 mouse at 3 mg/kg, iv measured upto 24 hrs by LC-MS/MS analysis; format: ADME, organism-based; settings: in vivo
[4] = target: T1, Protein cereblon/Bromodomain-containing protein 4 (Homo sapiens) (UniProt O60885+Q96SW2); assay: PROTAC activity at CRBN/BRD4-L in human MM1.S cells assessed as induction of protein degradation at 30 nM by Western blot analysis; format: cell-based; settings: TDE = time-dependent effect
T1 sequence (Q96SW2 whole entry, looked up, other chains not shown): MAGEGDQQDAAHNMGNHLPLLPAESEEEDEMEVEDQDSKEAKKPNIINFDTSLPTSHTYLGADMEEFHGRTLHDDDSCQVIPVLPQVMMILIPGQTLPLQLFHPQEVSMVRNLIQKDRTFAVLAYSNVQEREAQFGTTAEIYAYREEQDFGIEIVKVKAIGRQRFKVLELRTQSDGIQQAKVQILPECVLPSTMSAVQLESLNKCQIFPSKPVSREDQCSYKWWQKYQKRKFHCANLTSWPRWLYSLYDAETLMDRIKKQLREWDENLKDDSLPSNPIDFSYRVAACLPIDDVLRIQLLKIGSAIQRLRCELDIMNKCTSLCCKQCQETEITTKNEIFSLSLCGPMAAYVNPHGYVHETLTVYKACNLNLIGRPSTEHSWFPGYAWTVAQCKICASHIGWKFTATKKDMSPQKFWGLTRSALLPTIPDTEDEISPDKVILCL

[5] = tested on: MM1.S; assay: Antiproliferative activity against human MM1.S cells assessed as cell growth inhibition measured after 4 days by CellTitre-Glo assay; format: functional, cell-based; settings: 96 h
[6] = tested on: MM1.S; assay: Downregulation of c-Myc expression in human MM1.S cells at 30 nM measured after 1 to 24 hrs by Western blot analysis; format: functional, cell-based; settings: time 1-24 hrs
[7] = tested on: MM1.S; assay: Induction of cell cycle arrest in human MM1.S cells assessed as accumulation of cells at G1 phase incubated for 24 hrs by flow cytometry analysis; format: functional, cell-based; settings: dose 1-300 nM
[8] = target: T1, Protein cereblon/Bromodomain-containing protein 4 (Homo sapiens); assay: In vivo PROTAC activity at CRBN/BRD4-L in SCID mouse xenografted with human MM1.S cells assessed as reduction in BRD4-L protein level in tumor at 1 to 5 mg/kg, iv measured after 6 hrs by Western blot analysis; format: functional, organism-based; settings: dose 1-5 mg/kg
[9] = Cmax in C57 mouse at 3 mg/kg, po measured upto 24 hrs by LC-MS/MS analysis; format: ADME, organism-based; parameters: dose 3 mg/kg, time < 24 hrs, route po; settings: in vivo
[10] = Tmax in C57 mouse at 3 mg/kg, po measured upto 24 hrs by LC-MS/MS analysis; format: ADME, organism-based; settings: in vivo
[11] = Cmax in C57 mouse at 3 mg/kg, iv measured upto 24 hrs by LC-MS/MS analysis; format: ADME, organism-based; parameters: dose 3 mg/kg, time < 24 hrs, route iv; settings: in vivo
[12] = target: T1, Protein cereblon/Bromodomain-containing protein 4 (Homo sapiens); assay: In vivo PROTAC activity at CRBN/BRD4-S in SCID mouse xenografted with human MM1.S cells assessed as reduction in BRD4-S protein level in tumor at 5 mg/kg, iv measured after 24 hrs by Western blot analysis; format: functional, organism-based
[13] = AUC (0 to t) in C57 mouse at 3 mg/kg, po measured upto 24 hrs by LC-MS/MS analysis; format: ADME, organism-based; parameters: time < 24 hrs, dose 3 mg/kg, route po; settings: in vivo
[14] = target: T2, Protein cereblon/Bromodomain-containing protein 2 (Homo sapiens) (UniProt P25440+Q96SW2); assay: In vivo PROTAC activity at CRBN/BRD2 in SCID mouse xenografted with human MM1.S cells assessed as reduction in BRD2 protein level in tumor at 1 to 5 mg/kg, iv measured after 6 hrs by Western blot analysis; format: functional, organism-based; settings: dose 1-5 mg/kg
T2 sequence (P25440 whole entry, looked up): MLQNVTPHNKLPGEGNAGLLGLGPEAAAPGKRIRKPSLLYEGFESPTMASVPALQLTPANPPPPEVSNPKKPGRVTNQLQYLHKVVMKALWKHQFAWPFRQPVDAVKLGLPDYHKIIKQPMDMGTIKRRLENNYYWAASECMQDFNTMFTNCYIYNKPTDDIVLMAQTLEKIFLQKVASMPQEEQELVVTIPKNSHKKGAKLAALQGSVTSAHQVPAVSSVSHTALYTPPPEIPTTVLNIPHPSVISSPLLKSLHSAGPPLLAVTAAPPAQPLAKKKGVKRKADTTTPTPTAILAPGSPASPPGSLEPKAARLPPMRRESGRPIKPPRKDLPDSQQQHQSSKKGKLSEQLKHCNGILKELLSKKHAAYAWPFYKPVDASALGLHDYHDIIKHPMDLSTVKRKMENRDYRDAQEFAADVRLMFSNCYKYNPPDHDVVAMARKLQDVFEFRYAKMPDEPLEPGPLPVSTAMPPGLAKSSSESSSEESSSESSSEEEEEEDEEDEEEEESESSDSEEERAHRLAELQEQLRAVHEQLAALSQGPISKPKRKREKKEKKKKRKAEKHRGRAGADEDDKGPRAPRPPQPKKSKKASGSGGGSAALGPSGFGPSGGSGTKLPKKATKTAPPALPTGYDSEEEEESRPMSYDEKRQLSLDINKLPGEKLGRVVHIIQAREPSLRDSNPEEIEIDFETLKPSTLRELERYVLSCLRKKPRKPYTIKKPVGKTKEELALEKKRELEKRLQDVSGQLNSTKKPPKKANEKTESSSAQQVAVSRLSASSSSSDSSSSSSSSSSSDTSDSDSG
T2 sequence (Q96SW2 whole entry, looked up): as the sequence (Q96SW2 whole entry, looked up, other chains not shown) above

[15] = Clearance in C57 mouse at 3 mg/kg, po measured upto 24 hrs by LC-MS/MS analysis; format: ADME, organism-based; settings: in vivo
[16] = target: T3, Protein cereblon/Bromodomain-containing protein 3 (Homo sapiens) (UniProt Q15059+Q96SW2); assay: In vivo PROTAC activity at CRBN/BRD3 in SCID mouse xenografted with human MM1.S cells assessed as reduction in BRD3 protein level in tumor at 1 mg/kg, iv measured after 24 hrs by Western blot analysis; format: functional, organism-based
T3 sequence (Q15059 2-726 limits assumed): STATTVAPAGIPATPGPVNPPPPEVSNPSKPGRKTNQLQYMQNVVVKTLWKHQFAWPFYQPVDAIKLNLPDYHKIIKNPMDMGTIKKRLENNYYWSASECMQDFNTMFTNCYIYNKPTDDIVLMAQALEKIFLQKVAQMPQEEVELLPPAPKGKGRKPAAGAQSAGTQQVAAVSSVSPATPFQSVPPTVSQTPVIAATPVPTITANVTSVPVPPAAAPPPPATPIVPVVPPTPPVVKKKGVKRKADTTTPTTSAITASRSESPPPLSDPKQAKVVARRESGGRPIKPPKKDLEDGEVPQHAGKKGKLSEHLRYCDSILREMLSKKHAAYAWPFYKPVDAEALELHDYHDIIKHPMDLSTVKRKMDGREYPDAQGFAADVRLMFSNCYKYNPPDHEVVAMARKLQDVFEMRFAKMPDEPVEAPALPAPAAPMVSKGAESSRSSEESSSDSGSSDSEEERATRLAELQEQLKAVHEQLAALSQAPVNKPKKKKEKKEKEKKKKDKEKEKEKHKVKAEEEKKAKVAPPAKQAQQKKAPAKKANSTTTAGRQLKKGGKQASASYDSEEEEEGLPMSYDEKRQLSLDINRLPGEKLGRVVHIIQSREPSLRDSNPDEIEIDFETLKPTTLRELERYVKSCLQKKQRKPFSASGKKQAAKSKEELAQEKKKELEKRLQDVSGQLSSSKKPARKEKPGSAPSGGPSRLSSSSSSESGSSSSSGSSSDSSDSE
T3 sequence (Q96SW2 whole entry partner): as the sequence (Q96SW2 whole entry, looked up, other chains not shown) above

[17] = Toxicity in SCID mouse xenografted with human MM1.S cells assessed as effect on body weight at 1 mg/kg, iv administered once daily via tail vein for 14 consecutive days and measured twice a week; format: organism-based; settings: in vivo, 336 h, time 14 day
[18] = tested on: MM1.S; assay: Downregulation of c-Myc protein expression in human MM1.S cells at 0.1 to 30 nM measured after 24 hrs by Western blot analysis; format: functional, cell-based; settings: dose 0.1-30 nM
[19] = target: T4, Bromodomain-containing protein 3 (Homo sapiens, UniProt Q15059); assay: Binding affinity to recombinant human BRD3 BD2 (306 to 417 residues) assessed as inhibition constant by fluorescence polarization binding assay
T4 sequence (Q15059 whole entry, the tested form may be a part): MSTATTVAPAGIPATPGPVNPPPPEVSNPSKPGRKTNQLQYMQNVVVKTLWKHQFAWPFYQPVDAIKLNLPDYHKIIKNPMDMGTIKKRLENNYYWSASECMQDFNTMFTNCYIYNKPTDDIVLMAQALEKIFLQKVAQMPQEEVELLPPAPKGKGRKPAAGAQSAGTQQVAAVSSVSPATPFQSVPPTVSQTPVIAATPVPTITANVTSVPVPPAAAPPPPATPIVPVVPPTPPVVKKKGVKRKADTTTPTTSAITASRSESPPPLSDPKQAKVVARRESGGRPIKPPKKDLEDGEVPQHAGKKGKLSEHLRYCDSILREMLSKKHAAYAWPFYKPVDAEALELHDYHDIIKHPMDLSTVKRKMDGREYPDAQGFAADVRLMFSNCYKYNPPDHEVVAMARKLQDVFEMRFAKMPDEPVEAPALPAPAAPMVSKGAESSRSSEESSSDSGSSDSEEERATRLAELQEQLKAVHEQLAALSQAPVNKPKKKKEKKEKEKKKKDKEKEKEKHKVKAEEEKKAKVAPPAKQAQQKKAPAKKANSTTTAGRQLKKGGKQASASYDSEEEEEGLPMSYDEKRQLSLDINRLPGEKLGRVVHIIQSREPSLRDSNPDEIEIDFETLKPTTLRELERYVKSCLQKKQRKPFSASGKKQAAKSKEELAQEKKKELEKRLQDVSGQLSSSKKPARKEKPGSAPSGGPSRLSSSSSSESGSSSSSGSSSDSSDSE

[20] = target: T3, Protein cereblon/Bromodomain-containing protein 3 (Homo sapiens); assay: PROTAC activity at CRBN/BRD3 in human MM1.S cells assessed as induction of protein degradation at 1 uM measured after 1 to 24 hrs by Western blot analysis; format: cell-based; settings: time 1-24 hrs
[21] = target: T1, Protein cereblon/Bromodomain-containing protein 4 (Homo sapiens); assay: In vivo PROTAC activity at CRBN/BRD4-L in SCID mouse xenografted with human MM1.S cells assessed as reduction in BRD4-L protein level in tumor at 5 mg/kg, iv measured after 24 hrs by Western blot analysis; format: functional, organism-based
[22] = target: T1, Protein cereblon/Bromodomain-containing protein 4 (Homo sapiens); assay: PROTAC activity at CRBN/BRD4-S in human MM1.S cells assessed as induction of protein degradation at 1 uM measured after 1 to 24 hrs by Western blot analysis; format: cell-based; settings: time 1-24 hrs
[23] = tested on: MM1.S; assay: Antitumor activity against human MM1.S cells xenografted in SCID mouse assessed as tumor growth inhibition at 1 mg/kg, iv administered once daily via tail vein for 14 consecutive days and measured twice a week relative to control; format: functional; settings: 336 h, time 14 day, read-out: TGI
[24] = Oral bioavailability in C57 mouse at 3 mg/kg measured upto 24 hrs by LC-MS/MS analysis; format: ADME, organism-based; settings: in vivo
[25] = target: T3, Protein cereblon/Bromodomain-containing protein 3 (Homo sapiens); assay: In vivo PROTAC activity at CRBN/BRD3 in SCID mouse xenografted with human MM1.S cells assessed as reduction in BRD3 protein level in tumor at 1 to 5 mg/kg, iv measured after 6 hrs by Western blot analysis; format: functional, organism-based; settings: dose 1-5 mg/kg
[26] = target: T4, Bromodomain-containing protein 3; assay: Binding affinity to recombinant human BRD3 BD1 (24 to 144 residues) assessed as inhibition constant by fluorescence polarization binding assay
[27] = target: T2, Protein cereblon/Bromodomain-containing protein 2 (Homo sapiens); assay: PROTAC activity at CRBN/BRD2 in human MM1.S cells assessed as induction of protein degradation at 1 uM measured after 1 to 24 hrs by Western blot analysis; format: cell-based; settings: time 1-24 hrs
[28] = tested on: MV4-11; assay: Antiproliferative activity against human MV4-11 cells assessed as cell growth inhibition measured after 3 days by CellTitre-Glo assay; format: functional, cell-based; settings: MV4-11, 72 h
[29] = target: T1, Protein cereblon/Bromodomain-containing protein 4 (Homo sapiens); assay: PROTAC activity at CRBN/BRD4-L in human MM1.S cells assessed as induction of protein degradation at 1 uM measured after 1 to 24 hrs by Western blot analysis; format: cell-based; settings: time 1-24 hrs
[30] = target: T3, Protein cereblon/Bromodomain-containing protein 3 (Homo sapiens); assay: In vivo PROTAC activity at CRBN/BRD3 in SCID mouse xenografted with human MM1.S cells assessed as reduction in BRD3 protein level in tumor at 5 mg/kg, iv measured after 24 hrs by Western blot analysis; format: functional, organism-based
[31] = Toxicity in SCID mouse xenografted with human MM1.S cells assessed as loss of body weight at 5 mg/kg, iv administered once daily via tail vein for 8 consecutive days and measured twice a week; format: organism-based; settings: in vivo, 192 h, time 8 day
[32] = AUC (0 to t) in C57 mouse at 3 mg/kg, iv measured upto 24 hrs by LC-MS/MS analysis; format: ADME, organism-based; parameters: dose 3 mg/kg, time < 24 hrs, route iv; settings: in vivo
[33] = target: T3, Protein cereblon/Bromodomain-containing protein 3 (Homo sapiens); assay: PROTAC activity at CRBN/BRD3 in human MM1.S cells assessed as induction of protein degradation at 30 nM by Western blot analysis; format: cell-based; settings: TDE = time-dependent effect
[34] = target: T1, Protein cereblon/Bromodomain-containing protein 4 (Homo sapiens); assay: In vivo PROTAC activity at CRBN/BRD4-S in SCID mouse xenografted with human MM1.S cells assessed as reduction in BRD4-S protein level in tumor at 1 to 5 mg/kg, iv measured after 6 hrs by Western blot analysis; format: functional, organism-based; settings: dose 1-5 mg/kg
[35] = target: T2, Protein cereblon/Bromodomain-containing protein 2 (Homo sapiens); assay: In vivo PROTAC activity at CRBN/BRD2 in SCID mouse xenografted with human MM1.S cells assessed as reduction in BRD2 protein level in tumor at 5 mg/kg, iv measured after 24 hrs by Western blot analysis; format: functional, organism-based
[36] = Half life in C57 mouse at 3 mg/kg, iv measured upto 24 hrs by LC-MS/MS analysis; format: ADME, organism-based; settings: in vivo

Cc1nnc2n1-c1ccc(-c3ccc(CN(C)CCCCc4cccc5c4CN(C4CCC(=O)NC4=O)C5=O)cc3)cc1C(Nc1ccc(Cl)cc1)CC2 (stereo unspecified)
inhibition in vivo at 5 mg/kg [1]: 64%
Tmax [2]: 6 min
clearance [3]: 16.9 mL/min/kg
Activity [4]: Tde
IC50 [5]: 85.4 nM
Activity [6]: Active
Activity [7]: Dose-Dependent Effect
Activity [8]: Active
Cmax [9]: 51 ng/mL
Tmax [10]: 24 min
Cmax [11]: 7410 ng/mL
Activity [12]: inactive
AUCt [13]: 26 ng·h/mL
Activity [14]: inactive
CL/F [15]: 1240 mL/min/kg
Activity [16]: inactive
Activity [17]: Non-Toxic
Activity [18]: Active
Ki [19]: 2.8 nM
Activity [20]: Active
Activity [21]: inactive
Activity [22]: inactive
inhibition in vivo at 1 mg/kg [23]: 40%
F [24]: 2.14%
Activity [25]: Active
Ki [26]: 16.9 nM
Activity [27]: Active
IC50 [28]: 7.46 nM
Activity [29]: Active
Activity [30]: Active
Activity [31]: Toxic
AUCt [32]: 2961 ng·h/mL
Activity [33]: Tde
Activity [34]: inactive
Activity [35]: inactive
half-life [36]: 30 min
